Structures are written as SMILES.

This passage reports flash point results from a flash point compilation (Sun et al. 2020).

`COCCOC` [1,2-dimethoxyethane] registered a flash point of 0.00 °C. The same measure, in the same setting: then `COCCO` [2-methoxyethanol], with 42.00 °C. Same read-out and setting: to `CCCCCCCCCCCCCCCCC` [heptadecane] belongs 149.00 °C; to `CCCCC` [pentane], -49.00 °C.

The source holds these as a separate data set.
On to `COCCOC` [1,2-dimethoxyethane], for which the flash point is -2 °C. On the same count and under the same terms, then `COCCO` [2-methoxyethanol], with 38 °C. Still for that read-out and setting: to `CCCCCCCCCCCCCCCCC` [heptadecane] belongs 148 °C; to `CCCCCCC(=O)O` [heptanoicacid], 109 °C.

`CCCCCCCOC(C)=O` [heptylacetate]: the flash point came out at 67 °C. Same read-out and setting: to `CCCCCCCN` [heptylamine] belongs 44 °C. The molecule `CCCCCCCOC=O` [heptylformate] displayed a flash point of 60 °C. The same measure, in the same setting: to `CCCCCC(=O)O` [hexanoicacid] belongs 102 °C; to `CCCCCC(=O)OC(=O)CCCCC` [hexanoicanhydride], 113 °C; to `CCCCCCN` [hexylamine], 27 °C. Turning to `CCCCCCc1ccccc1` [hexylbenzene], the flash point turned out to be 83 °C. The same measure, in the same setting: to `CCCCCCOC(=O)CC` [hexylpropanoate] belongs 65 °C; to `CC(C)C(=O)OC(=O)C(C)C` [isobutanoicanhydride], 67 °C; to `CC(C)CN` [isobutylamine], -10 °C. Still for that read-out and setting: to `CC(C)Cc1ccccc1` [isobutylbenzene] belongs 50 °C. The same measure, in the same setting: to `CC(C)COC(=O)c1ccccc1` [isobutylbenzoate] belongs 102 °C; to `CC(C)COC=O` [isobutylformate], 4 °C; to `CC(C)C#N` [isobutyronitrile], 8 °C. In turn, `CCC(=O)OCCC(C)C` [isopentylpropanoate] had a flash point of 46 °C. Take `CC1=CC(=O)CC(C)(C)C1` [isophorone]: the flash point turned out to be 84 °C. `CC(=O)OC(C)C` [isopropylacetate] had a flash point of 2 °C.

In the case of `CC(C)OCC1CO1` (stereo not drawn) [isopropylglycidylether], the flash point was determined as 33 °C. The same measure, in the same setting: then `COC(C)C` [isopropylmethylether], with -47 °C; and `CCc1cccc(CC)c1` [m-diethylbenzene], with 51 °C; and `CCc1cccc(C)c1` [m-ethyltoluene], with 38 °C. Consider `Cc1cccc(C(C)C)c1` [m-isopropyltoluene], for which the flash point stood at 47 °C.

`CCCCCC#CC(=O)OC` [methyl2-octynoate] showed a flash point of 89 °C. As to `COC(=O)c1ccccc1` [methylbenzoate], the flash point amounted to 80 °C. Same read-out and setting: then `COC(=O)C1CCCCC1` [methylcyclohexanecarboxylate], with 60 °C.

As for `COC(=O)C1CC1` [methylcyclopropanecarboxylate], the flash point worked out at 18 °C. `CCCCCCC(=O)OC` [methylheptanoate] showed a flash point of 52 °C. Still for that read-out and setting: then `C=C(C)C(=O)OC` [methylmethacrylate], with 10 °C. Still for that read-out and setting: then `CCCCC(=O)OC` [methylpentanoate], with 22 °C; and `CCC(=O)OC` [methylpropanoate], with -2 °C; and `O=[N+]([O-])c1ccccc1` [nitrobenzene], with 88 °C. The same measure, in the same setting: then `CCCCCCCCC=O` [nonanal], with 63 °C.

`CCCCCCCCCc1ccccc1` [nonylbenzene] had a flash point of 117 °C.

`CCc1ccccc1C` [o-ethyltoluene] gave a flash point of 39 °C. Same read-out and setting: to `Cc1ccccc1C(C)C` [o-isopropyltoluene] belongs 50 °C. Same read-out and setting: then `Cc1ccccc1N` [o-toluidine], with 85 °C. Consider `Cc1ccccc1C` [o-xylene], for which the flash point was 30 °C. Still for that read-out and setting: to `CCCCCCCC=O` [octanal] belongs 51 °C; to `CCCCCCCCOC(C)=O` [octylacetate], 82 °C. Still for that read-out and setting: to `CCCCCCCCN` [octylamine] belongs 60 °C; to `CCCCCCCCc1ccccc1` [octylbenzene], 107 °C; to `CCCCCCCCOC=O` [octylformate], 69 °C. The same measure, in the same setting: to `CCc1ccc(CC)cc1` [p-diethylbenzene] belongs 55 °C; to `Cc1ccc(C(C)C)cc1` [p-isopropyltoluene], 47 °C; to `CCCCC` [pentane], -40 °C. `CCCCC(=O)O` [pentanoicacid] returned a flash point of 85 °C. Same read-out and setting: to `CCCCCN` [pentylamine] belongs 4 °C; to `CCCCCc1ccccc1` [pentylbenzene], 66 °C. Still for that read-out and setting: to `CCCCCC1CCCCC1` [pentylcyclohexane] belongs 63 °C. The same measure, in the same setting: then `CCCCCOC=O` [pentylformate], with 26 °C. Turning to `CCC(=O)O` [propionicacid], the flash point came out at 58 °C. The same measure, in the same setting: then `CCC#N` [propionitrile], with 6 °C. Still for that read-out and setting: then `CCCOC(C)=O` [propylacetate], with 10 °C; and `C=CC(=O)OCCC` [propylacrylate], with 24 °C. The same measure, in the same setting: to `CCCN` [propylamine] belongs -30 °C. With `CCCc1ccccc1` [propylbenzene], the flash point worked out at 30 °C.

The molecule `CCCOC(=O)c1ccccc1` [propylbenzoate] returned a flash point of 98 °C. On the same count and under the same terms, then `CCCC1CCCCC1` [propylcyclohexane], with 31 °C; and `CCCC1CCCC1` [propylcyclopentane], with 16 °C.

Regarding `CC1CO1` (stereo not drawn) [propyleneoxide], the flash point is -37 °C. On the same count and under the same terms, then `CCCOC=O` [propylformate], with -3 °C. For the molecule `c1cc[nH]c1` [pyrrole], the flash point came to 33 °C. Same read-out and setting: to `c1ccc2ncccc2c1` [quinoline] belongs 101 °C. The molecule `CCC(C)OC(C)=O` (stereo not drawn) [sec-butylacetate] returned a flash point of 16 °C. The same measure, in the same setting: then `CC(=O)CC(=O)OC(C)(C)C` [tert-butylacetoacetate], with 76 °C; and `CC(C)(C)C1CCCCC1` [tert-butylcyclohexane], with 40 °C. On the same count and under the same terms, to `COC(C)(C)C` [tert-butylmethylether] belongs -28 °C; to `CCC(=O)OC(C)(C)C` [tert-butylpropanoate], 20 °C. On the same count and under the same terms, then `CCC(C)(C)OC(C)=O` [tert-pentylacetate], with 25 °C.

The molecule `C1CCSCC1` [thiacyclohexane] gave a flash point of 21 °C.

Consider `C1CCSC1` [thiacyclopentane], for which the flash point is 13 °C. The same measure, in the same setting: to `c1ccsc1` [thiophene] belongs -9 °C; to `C/C=C/C=O` [trans-2-butenal], 9 °C.

In the case of `C/C=C/CCCC` [trans-2-heptene], the flash point is -6 °C. The same measure, in the same setting: to `C/C=C/CCC` [trans-2-hexene] belongs -25 °C; to `CC/C=C/C(=O)O` [trans-2-pentenoicacid], 102 °C. On the same count and under the same terms, then `CC/C=C/CC` [trans-3-hexene], with -25 °C.

As to `CC/C=C/CCCC` [trans-3-octene], the flash point worked out at 9 °C. Take `C/C=C/C(C)C` [trans-4-methyl-2-pentene]: the flash point is -27 °C.

Take `CCCCN(CCCC)CCCC` [tributylamine]: the flash point was 71 °C. The same measure, in the same setting: then `CCN(CC)CC` [triethylamine], with -9 °C. Same read-out and setting: then `CCCCCCCCCCCOC(C)=O` [undecylacetate], with 111 °C. Same read-out and setting: then `CCCCCCCCCCCc1ccccc1` [undecylbenzene], with 144 °C.

The source holds these as a separate data set.
`CC(Cl)(Cl)Cl` [1,1,1-trichloroethane] came in with a flash point of -1 °C.

`ClCC(Cl)Cl` [1,1,2-trichloroethane] returned a flash point of 32 °C. Still for that read-out and setting: to `c1ccc2c(c1)CCCC2` [1,2,3,4-tetrahydronaphthalene] belongs 77 °C. Still for that read-out and setting: then `Cc1ccc(C)c(C)c1` [1,2,4-trimethylbenzene], with 44 °C; and `O=C1CCCCC1=O` [1,2-cyclohexanedione], with 84 °C. Same read-out and setting: then `NCCN` [1,2-ethanediamine], with 34 °C; and `C=C=C` [1,2-propadiene], with -101 °C; and `C1=CCC=C1` [1,3-cyclopentadiene], with 25 °C. `CCc1ccc(CC)cc1` [1,4-diethylbenzene] came in with a flash point of 56 °C. Still for that read-out and setting: then `OCCCCCCO` [1,6-hexanediol], with 101 °C; and `CC(O)CN` (stereo not drawn) [1-amino-2-propanol], with 77 °C; and `CCCCCCCBr` [1-bromoheptane], with 60 °C. Same read-out and setting: then `CCCCCCCCBr` [1-bromooctane], with 78 °C; and `CCCCCCCCCCN` [1-decanamine], with 86 °C. Same read-out and setting: then `CCC1(C)CCCC1` [1-ethyl-1-methylcyclopentane], with 6 °C; and `CCN1CCCCC1` [1-ethylpiperidine], with 18 °C; and `CCCCCCCS` [1-heptanethiol], with 41 °C. `CCCCCCCO` [1-heptanol] showed a flash point of 71 °C. The molecule `Cc1cccc(I)c1` [1-iodo-3-methylbenzene] showed a flash point of 82 °C. The same measure, in the same setting: to `CCCCI` [1-iodobutane] belongs 33 °C; to `CCCCCI` [1-iodopentane], 43 °C. Same read-out and setting: then `CCCCCCCCCO` [1-nonanol], with 98 °C.
